These results are taken from ChEMBL document CHEMBL3779822, “Indolyl-3-ethanone-α-thioethers: A promising new class of non-toxic antimalarial agents” (Eur J Med Chem, 2016).

The test system of one assay is Plasmodium falciparum. Kind of assay: Antiplasmodial activity against Plasmodium falciparum 3D7 infected in human erythrocytes assessed as inhibition of parasite growth after 48 hrs by parasite lactate dehydrogenase assay. It is filed as functional, organism-based. The settings on record: 3D7, 48 h.
The test system of a further assay is HeLa. Kind of assay: Growth inhibition of human HeLa cells after 48 hrs by resazurin assay. It is filed as cell-based. In general terms: The colour change of resazurin is a common sign of viable cells or microbes.
Assay [1] in a line: Selectivity index, ratio if IC50 for human HeLa cells to IC50 for Plasmodium falciparum 3D7. Type of assay: functional.

pIC50: −log10 of the molar value.

For the molecule `O=C(COc1ccccc1)c1c[nH]c2ccccc12`, the pIC50 in the assay on Plasmodium falciparum and in the assay with HeLa was under 3.30 throughout.
As to `O=C(CSc1ccc(Br)cc1)c1c[nH]c2ccc(Cl)cc12`, the figures for the pIC50 with Plasmodium falciparum and in the assay with HeLa were 7.05 and under 3.30, respectively. Moreover, the “Ratio IC50” value in assay [1] turned out to be 5556.
`CC(SCC(=O)c1c[nH]c2ccccc12)c1ccccc1` (stereo not drawn): the results for the pIC50 in the assay on Plasmodium falciparum and with HeLa were 3.91 and 4.12, respectively. Moreover, the “Ratio IC50” value in assay [1] is listed as 1.
Turning to `CC(C)(C)c1ccc(SCC(=O)c2c[nH]c3ccccc23)cc1`, the pIC50 in the assay on Plasmodium falciparum was 5.05; in the assay on HeLa, under 3.30. In assay [1], the “Ratio IC50” value was determined as 56.
As for `O=C(CSCc1ccc(Br)cc1)c1c[nH]c2ccccc12`, the pIC50 with Plasmodium falciparum and in the assay on HeLa was under 3.30 each time.
For `O=C(CSc1ccc(Br)cc1)c1c[nH]c2c(F)cccc12`, the pIC50 was 5.62 in the assay with Plasmodium falciparum and under 3.30 in the assay with HeLa. Also, in assay [1], the “Ratio IC50” value was found to be 208.
On to `O=C(CNc1ccccc1)c1c[nH]c2ccccc12`, for which the pIC50 in the assay on Plasmodium falciparum was 4.14; with HeLa it was under 3.30. For the same molecule, the “Ratio IC50” value in assay [1] turned out to be 7.
On to `O=C(CSCc1ccc(F)cc1)c1c[nH]c2ccccc12`, for which the figures for the pIC50 with Plasmodium falciparum and with HeLa were 4.24 and under 3.30, respectively. In assay [1], the “Ratio IC50” value was determined as 9.
For `O=C(CSCc1cccc(Br)c1)c1c[nH]c2ccccc12`, in that order: 4.89, 4.46 and 3.
With `O=C(CSc1ccccc1Cl)c1c[nH]c2ccccc12`, the pIC50 in the assay on Plasmodium falciparum and in the assay on HeLa was under 3.30 throughout.
Turning to `O=C(CSc1ccc(Br)cc1)c1c[nH]c2c(I)cccc12`, the pIC50 in the assay with Plasmodium falciparum was 4.35; in the assay with HeLa, 4.25. For the same molecule, in assay [1], the “Ratio IC50” value was 1.
Regarding `O=C(CSCc1ccc(Cl)cc1)c1c[nH]c2ccccc12`, the negative-log IC50 (pIC50) in the assay on Plasmodium falciparum and in the assay with HeLa was under 3.30 in each case.
For `O=C(CSc1ccc(Br)cc1)c1c[nH]c2ccccc12`, the pIC50 in the assay on Plasmodium falciparum was 5.89; in the assay on HeLa, under 3.30. Further, the “Ratio IC50” value in assay [1] worked out at 385.
For `O=C(CSc1ccc(Br)cc1)c1c[nH]c2cc(F)ccc12`, in that order: 5.89, under 3.30 and 385.
For `Cn1cc(C(=O)CSc2ccc(Br)cc2)c2ccccc21` the same measures were 4.82, under 3.30 and 33.
Turning to `CN(C)c1ccc(SCC(=O)c2c[nH]c3ccccc23)cc1`, the pIC50 was 3.98 with Plasmodium falciparum and 4.22 in the assay on HeLa. For the same molecule, the “Ratio IC50” value in assay [1] was found to be 1.
For `Cc1ccc(SCC(=O)c2c[nH]c3ccccc23)cc1` the same measures were 4.72, under 3.30 and 26.
As to `O=C(CSCCc1ccccc1)c1c[nH]c2ccccc12`, the values for the pIC50 in the assay on Plasmodium falciparum and in the assay on HeLa were 5.11 and 4.85, respectively. The “Ratio IC50” value in assay [1] amounted to 2.
In the case of `O=C(CSc1ccc(Br)cc1)c1c[nH]c2ccc(Br)cc12`, the values for the negative logarithm of the IC50 (pIC50) in the assay with Plasmodium falciparum and in the assay with HeLa were 6.92 and under 3.30, respectively. Also, the “Ratio IC50” value in assay [1] was found to be 4167.
Regarding `O=C(CSc1ccc([N+](=O)[O-])cc1)c1c[nH]c2ccccc12`, the pIC50 is 6.62 in the assay with Plasmodium falciparum and under 3.30 with HeLa. Also, in assay [1], the “Ratio IC50” value amounted to 2083.
For `O=C(COc1ccc(Cl)cc1)c1c[nH]c2ccccc12`, in that order: 5.74, under 3.30 and 278.
For `O=C(CSc1ccc(Br)cc1)c1c[nH]c2cc(Br)c(F)cc12` the same measures were 4.72, under 3.30 and 26.
For `O=C(CSc1ccccc1)c1c[nH]c2ccccc12` the same measures were 4.54, 3.55 and 10.
For the molecule `O=C(CSc1ccc(Br)cc1)c1c[nH]c2cc(Br)ccc12`, the pIC50 in the assay on Plasmodium falciparum was 3.55; in the assay with HeLa, under 3.30. The “Ratio IC50” value in assay [1] came out at 2.
Consider `O=C(CSc1cccc(Cl)c1)c1c[nH]c2ccccc12`, for which the pIC50 with Plasmodium falciparum is 4.36; with HeLa it was under 3.30. Besides, the “Ratio IC50” value in assay [1] is recorded as 11.
Consider `O=C(CSCc1ccccc1)c1c[nH]c2ccccc12`, for which the pIC50 is 3.88 in the assay on Plasmodium falciparum and under 3.30 in the assay on HeLa. Moreover, the “Ratio IC50” value in assay [1] is on record as 4.
For `Cc1cc(Br)c2[nH]cc(C(=O)CSc3ccc(Br)cc3)c2c1` the same measures were 5.74, 3.65 and 124.
In the case of `O=C(CSc1ccc(Br)cc1)c1c[nH]c2cc(Cl)ccc12`, the pIC50 in the assay on Plasmodium falciparum was 5.55; in the assay on HeLa it was under 3.30. Besides, the “Ratio IC50” value in assay [1] amounted to 179.
Turning to `O=C(CSc1ccc(Br)cc1)c1c[nH]c2cc(Cl)c(F)cc12`, the figures for the pIC50 with Plasmodium falciparum and in the assay on HeLa were 4.92 and under 3.30, respectively. Further, the “Ratio IC50” value in assay [1] was found to be 42.
As to `Nc1ccc(SCC(=O)c2c[nH]c3ccccc23)cc1`, the pIC50 was 4.70 with Plasmodium falciparum and 4.44 with HeLa. Moreover, the “Ratio IC50” value in assay [1] is listed as 2.
For `O=C(CSc1ccc(Br)cc1)c1cn(Cc2ccccc2)c2ccccc12`, in that order: 5.57, under 3.30 and 185.
`O=C(CSc1ccc(F)cc1)c1c[nH]c2ccccc12`: the pIC50 is 5.77 in the assay with Plasmodium falciparum and under 3.30 with HeLa. In addition, the “Ratio IC50” value in assay [1] is recorded as 294.
For `O=C(CSc1ccc(Cl)cc1)c1c[nH]c2ccccc12`, in that order: 5.85, under 3.30 and 357.
For `O=C(CNc1ccc(Cl)cc1)c1c[nH]c2ccccc12` the same measures were 4.54, 4.80 and 0.6.
As for `Cc1ccccc1SCC(=O)c1c[nH]c2ccccc12`, the results for the pIC50 with Plasmodium falciparum and in the assay on HeLa were 4.92 and under 3.30, respectively. Besides, the “Ratio IC50” value in assay [1] came out at 42.
For `O=C(CSc1cccc(Br)c1)c1c[nH]c2ccccc12` the same measures were 3.97, under 3.30 and 5.
For `O=C(CSc1cccc(F)c1)c1c[nH]c2ccccc12` the same measures were 5.41, under 3.30 and 128.
The molecule `CC[C@H]1CN2CCc3cc(OC)c(OC)cc3[C@@H]2C[C@@H]1C[C@H]1NCCc2cc(OC)c(OC)cc21` [EMETINE] gave a pIC50 in the assay with HeLa of 6.43.

By pIC50 is commonly meant −log10 of the IC50, conventionally taken in molar units.
